Assay results as given in PMC6332036, “The Guareschi Pyridine Scaffold as a Valuable Platform for the Identification of Selective PI3K Inhibitors” (Molecules, 2015).

How the values were obtained:
PI3Kα = biological target: T1, PI3Kα (Homo sapiens, UniProt P42336); assay: ADP-Glo luminescent lipid kinase assay, PI3Kα; assay type: biochemical; conditions: recombinant enzyme 30 ng, 10 μM ATP, 30 min, room temperature; standard error (SE)
T1 construct: purchased JenaBioscience PR-335
Method: (§1) All the synthesized compounds were then tested in vitro for their ability to inhibit the kinase activity of the PI3Kα, PI3Kβ, PI3Kγ, and PI3Kδ isoforms in a luminescent kinase assay (ADP-GloTM kinase assay) using purified, recombinant human enzymes and ATP. IC50 values were subsequently determined.
(§2) To evaluate the ability of each compound of formula (9a–h) to inhibit the lipid kinase activity of each PI3K isoform, 30 ng of PI3Kα, β, γ, and δ recombinant protein (purchased from JenaBioscience—Jena, Germany; PI3Kα #PR-335, PI3Kβ #PR-344, PI3Kγ #PR-343, PI3Kδ #PR-345) were incubated with at least five different concentrations (from 0.016 to 10 µM) of the compounds (9a–h). The phosphorylation reaction was then started by adding 10 μM of ATP, and 10 µg of lipid micelles containing the appropriate substrate phosphatidylinositol and the phosphatidylserine.
(§3) After 30 min of incubation (1 h for PI3Kβ recombinant protein) at room temperature, the reaction was stopped, and the amount of ADP metabolite was measured with a luminescent kinase assay, ADP-GloTM Kinase Assay (purchased from Promega—USA #V9101). The luminescent signal positively correlated with the formed ADP and, therefore, with the kinase activity. The percentage of kinase activity was calculated over the control samples, containing only dimethyl sulfoxide (DMSO). To derive the IC50 values for each assayed compound (9a–h), all data were plotted on a dose response curve (Graph Pad Software) and the IC50 was calculated by using the nonlinear regression fit (equation (log agonist) vs. response—Sigmoidal dose response). The IC50 was representative of two different experiments performed in triplicate.

PI3Kβ = biological target: T2, PI3Kβ (Homo sapiens, UniProt P42338); assay: ADP-Glo luminescent lipid kinase assay, PI3Kβ; assay type: biochemical; conditions: recombinant enzyme 30 ng, 10 μM ATP, 1 h, room temperature; standard error (SE)
T2 construct: purchased JenaBioscience PR-344
T2 sequence (P42338 whole entry): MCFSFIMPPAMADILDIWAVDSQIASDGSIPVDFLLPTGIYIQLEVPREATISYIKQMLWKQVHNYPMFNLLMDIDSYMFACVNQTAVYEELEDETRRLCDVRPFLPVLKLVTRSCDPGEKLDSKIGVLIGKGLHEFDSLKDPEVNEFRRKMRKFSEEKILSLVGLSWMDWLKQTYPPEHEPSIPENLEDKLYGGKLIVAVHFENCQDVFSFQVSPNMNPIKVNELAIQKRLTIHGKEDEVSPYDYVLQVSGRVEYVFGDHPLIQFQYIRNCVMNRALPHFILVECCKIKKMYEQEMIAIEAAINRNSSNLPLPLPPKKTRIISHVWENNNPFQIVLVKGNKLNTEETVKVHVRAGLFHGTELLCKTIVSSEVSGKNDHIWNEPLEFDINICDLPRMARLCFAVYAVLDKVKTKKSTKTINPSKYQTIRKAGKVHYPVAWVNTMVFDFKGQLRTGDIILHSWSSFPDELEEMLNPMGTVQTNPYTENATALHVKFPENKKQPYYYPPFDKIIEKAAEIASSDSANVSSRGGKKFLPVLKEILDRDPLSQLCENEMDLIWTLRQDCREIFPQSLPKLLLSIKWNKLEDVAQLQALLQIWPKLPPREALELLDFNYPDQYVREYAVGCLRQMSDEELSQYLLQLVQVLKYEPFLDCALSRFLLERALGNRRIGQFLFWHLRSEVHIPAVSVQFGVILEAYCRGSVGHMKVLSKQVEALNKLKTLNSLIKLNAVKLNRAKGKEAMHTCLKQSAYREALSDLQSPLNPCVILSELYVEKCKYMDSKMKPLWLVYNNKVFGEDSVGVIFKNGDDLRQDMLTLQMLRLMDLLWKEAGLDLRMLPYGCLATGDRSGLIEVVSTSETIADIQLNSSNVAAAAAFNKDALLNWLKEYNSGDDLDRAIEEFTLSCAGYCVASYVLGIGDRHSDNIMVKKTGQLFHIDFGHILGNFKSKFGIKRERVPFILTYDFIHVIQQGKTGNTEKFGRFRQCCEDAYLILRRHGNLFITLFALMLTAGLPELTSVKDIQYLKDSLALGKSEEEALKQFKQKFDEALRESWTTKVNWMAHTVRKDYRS
T2 sequence (P27986 whole entry partner): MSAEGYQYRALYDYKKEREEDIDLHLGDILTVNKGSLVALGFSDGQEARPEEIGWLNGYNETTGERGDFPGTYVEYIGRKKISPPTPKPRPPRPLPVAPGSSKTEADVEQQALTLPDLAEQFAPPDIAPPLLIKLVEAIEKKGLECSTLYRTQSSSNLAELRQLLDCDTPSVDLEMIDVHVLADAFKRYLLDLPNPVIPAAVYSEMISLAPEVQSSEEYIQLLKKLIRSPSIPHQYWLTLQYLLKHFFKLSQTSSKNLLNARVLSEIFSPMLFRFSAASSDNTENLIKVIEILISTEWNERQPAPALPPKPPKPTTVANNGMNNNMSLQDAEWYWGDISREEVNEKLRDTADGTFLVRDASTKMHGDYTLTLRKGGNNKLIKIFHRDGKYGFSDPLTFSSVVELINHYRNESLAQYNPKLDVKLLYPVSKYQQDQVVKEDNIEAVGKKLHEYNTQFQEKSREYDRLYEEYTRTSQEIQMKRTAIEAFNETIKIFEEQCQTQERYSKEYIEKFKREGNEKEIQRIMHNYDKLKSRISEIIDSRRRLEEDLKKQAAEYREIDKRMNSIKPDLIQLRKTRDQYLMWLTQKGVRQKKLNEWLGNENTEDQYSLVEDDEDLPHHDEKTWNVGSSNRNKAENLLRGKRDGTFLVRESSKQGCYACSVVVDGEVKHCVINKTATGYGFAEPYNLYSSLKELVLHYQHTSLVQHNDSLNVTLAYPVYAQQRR
Method: as §1, §2, §3

PI3Kγ = biological target: T3, PI3Kγ (Homo sapiens, UniProt P48736); assay: ADP-Glo luminescent lipid kinase assay, PI3Kγ; assay type: biochemical; conditions: recombinant enzyme 30 ng, 10 μM ATP, 30 min, room temperature; standard error (SE)
T3 construct: purchased JenaBioscience PR-343
T3 sequence (P48736 whole entry): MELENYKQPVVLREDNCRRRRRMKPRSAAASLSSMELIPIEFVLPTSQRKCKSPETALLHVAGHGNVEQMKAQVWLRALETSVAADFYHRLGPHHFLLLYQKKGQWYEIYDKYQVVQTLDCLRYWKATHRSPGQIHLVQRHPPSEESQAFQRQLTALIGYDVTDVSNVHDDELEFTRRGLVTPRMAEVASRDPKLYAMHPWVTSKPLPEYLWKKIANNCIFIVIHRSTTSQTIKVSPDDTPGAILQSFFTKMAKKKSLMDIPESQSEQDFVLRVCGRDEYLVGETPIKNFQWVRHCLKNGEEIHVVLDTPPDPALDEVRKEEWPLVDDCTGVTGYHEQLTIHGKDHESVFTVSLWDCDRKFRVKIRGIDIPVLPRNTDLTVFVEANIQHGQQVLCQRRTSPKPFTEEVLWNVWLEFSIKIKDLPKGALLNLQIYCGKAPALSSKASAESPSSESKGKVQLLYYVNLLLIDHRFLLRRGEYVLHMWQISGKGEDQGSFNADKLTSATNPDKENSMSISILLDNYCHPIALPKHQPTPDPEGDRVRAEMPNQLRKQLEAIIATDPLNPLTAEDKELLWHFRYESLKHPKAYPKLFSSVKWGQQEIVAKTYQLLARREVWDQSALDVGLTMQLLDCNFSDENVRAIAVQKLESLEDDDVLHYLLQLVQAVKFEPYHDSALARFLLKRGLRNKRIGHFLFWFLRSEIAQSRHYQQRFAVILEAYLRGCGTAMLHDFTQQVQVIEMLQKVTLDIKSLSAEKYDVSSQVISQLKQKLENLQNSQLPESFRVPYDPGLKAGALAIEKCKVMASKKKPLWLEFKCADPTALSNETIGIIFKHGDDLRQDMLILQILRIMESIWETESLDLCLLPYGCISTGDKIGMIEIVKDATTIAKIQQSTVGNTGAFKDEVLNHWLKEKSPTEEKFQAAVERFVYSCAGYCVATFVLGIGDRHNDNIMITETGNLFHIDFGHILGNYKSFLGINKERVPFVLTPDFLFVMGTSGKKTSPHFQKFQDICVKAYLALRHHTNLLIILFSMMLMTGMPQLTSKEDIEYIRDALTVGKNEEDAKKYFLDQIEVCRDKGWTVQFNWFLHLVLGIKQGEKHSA
Method: as §1, §2, §3

PI3Kδ = biological target: T4, PI3Kδ (Homo sapiens, UniProt O00329); assay: ADP-Glo luminescent lipid kinase assay, PI3Kδ; assay type: biochemical; conditions: recombinant enzyme 30 ng, 10 μM ATP, 30 min, room temperature; standard error (SE)
T4 construct: purchased JenaBioscience PR-345
T4 sequence (O00329 whole entry): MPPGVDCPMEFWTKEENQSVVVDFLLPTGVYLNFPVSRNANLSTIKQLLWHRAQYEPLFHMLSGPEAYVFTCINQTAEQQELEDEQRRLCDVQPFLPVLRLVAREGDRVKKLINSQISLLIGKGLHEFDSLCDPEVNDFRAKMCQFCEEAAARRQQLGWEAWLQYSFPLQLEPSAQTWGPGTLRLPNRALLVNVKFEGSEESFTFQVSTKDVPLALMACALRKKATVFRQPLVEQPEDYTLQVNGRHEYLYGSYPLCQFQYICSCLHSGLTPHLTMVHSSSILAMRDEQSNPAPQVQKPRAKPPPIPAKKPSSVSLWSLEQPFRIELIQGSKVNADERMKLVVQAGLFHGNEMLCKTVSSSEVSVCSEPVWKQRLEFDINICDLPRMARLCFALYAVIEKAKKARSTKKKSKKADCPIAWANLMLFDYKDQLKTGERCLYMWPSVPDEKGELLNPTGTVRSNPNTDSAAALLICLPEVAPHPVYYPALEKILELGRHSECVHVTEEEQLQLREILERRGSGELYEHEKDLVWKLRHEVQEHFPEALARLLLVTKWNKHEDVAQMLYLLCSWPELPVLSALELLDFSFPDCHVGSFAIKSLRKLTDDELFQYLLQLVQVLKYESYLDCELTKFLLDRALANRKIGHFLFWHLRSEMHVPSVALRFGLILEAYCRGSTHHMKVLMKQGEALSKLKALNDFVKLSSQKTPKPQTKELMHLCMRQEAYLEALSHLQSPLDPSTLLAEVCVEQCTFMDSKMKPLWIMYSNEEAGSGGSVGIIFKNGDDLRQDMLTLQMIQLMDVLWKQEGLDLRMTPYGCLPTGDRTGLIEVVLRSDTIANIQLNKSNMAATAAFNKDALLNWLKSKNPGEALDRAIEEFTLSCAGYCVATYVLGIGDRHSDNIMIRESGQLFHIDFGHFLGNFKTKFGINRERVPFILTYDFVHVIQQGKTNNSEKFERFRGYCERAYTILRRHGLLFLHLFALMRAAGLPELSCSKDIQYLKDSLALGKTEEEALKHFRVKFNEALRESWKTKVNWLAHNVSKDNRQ
T4 sequence (P27986 whole entry partner): as the sequence (P27986 whole entry partner) above
Method: as §1, §2, §3

PI3Kα signaling pathway = assay: Cell-based assay: P-Akt in insulin-stimulated NIH3T3 cells (Western blot); conditions: Mus musculus, 1.5 h pre-treatment, 5 min stimulation with 1 μM insulin, SE ± 0.6, read-out: IC50, residual P-Akt
Method: Subsequently, compound 9b was analyzed on cell-based assay in order to evaluate its ability to inhibit the PI3Kα signaling pathway on cells. It is well established that insulin signaling is mostly regulated by PI3Kα [29]. The activated insulin receptor triggers PI3Kα activity mainly by binding and phosphorylating adaptor proteins of the IRS (insulin receptor substrate) family. Once activated, PI3Kα produces the PtdIns(3,4,5)P3 lipid product, which in turn mediates the activation of downstream effectors such as Akt. Thus, phosphorylation of Akt results as a key event of the PI3Kα activation. […] A dose response curve and an IC50 value were determined.
NIH3T3 cells were cultured in […] (DMEM) (GIBCO-Thermo Fisher Scientific Inc., Waltham, MA, USA) supplemented with 10% Fetal Bovine Serum (FBS) (GIBCO-Thermo Fisher Scientific Inc.), 100 units/mL penicillin (GIBCO-Thermo Fisher Scientific Inc.), and 100 μg/mL streptomycin (GIBCO- Thermo Fisher Scientific Inc.). […] The P-Akt production is detected by Western blot analysis and quantified with ChemiDoc™ XRS system. From the absolute values, a percentage of residual P-Akt is calculated for each inhibitor concentration by using the control vehicle as 100%. […]

T1 sequence (P42336 whole entry): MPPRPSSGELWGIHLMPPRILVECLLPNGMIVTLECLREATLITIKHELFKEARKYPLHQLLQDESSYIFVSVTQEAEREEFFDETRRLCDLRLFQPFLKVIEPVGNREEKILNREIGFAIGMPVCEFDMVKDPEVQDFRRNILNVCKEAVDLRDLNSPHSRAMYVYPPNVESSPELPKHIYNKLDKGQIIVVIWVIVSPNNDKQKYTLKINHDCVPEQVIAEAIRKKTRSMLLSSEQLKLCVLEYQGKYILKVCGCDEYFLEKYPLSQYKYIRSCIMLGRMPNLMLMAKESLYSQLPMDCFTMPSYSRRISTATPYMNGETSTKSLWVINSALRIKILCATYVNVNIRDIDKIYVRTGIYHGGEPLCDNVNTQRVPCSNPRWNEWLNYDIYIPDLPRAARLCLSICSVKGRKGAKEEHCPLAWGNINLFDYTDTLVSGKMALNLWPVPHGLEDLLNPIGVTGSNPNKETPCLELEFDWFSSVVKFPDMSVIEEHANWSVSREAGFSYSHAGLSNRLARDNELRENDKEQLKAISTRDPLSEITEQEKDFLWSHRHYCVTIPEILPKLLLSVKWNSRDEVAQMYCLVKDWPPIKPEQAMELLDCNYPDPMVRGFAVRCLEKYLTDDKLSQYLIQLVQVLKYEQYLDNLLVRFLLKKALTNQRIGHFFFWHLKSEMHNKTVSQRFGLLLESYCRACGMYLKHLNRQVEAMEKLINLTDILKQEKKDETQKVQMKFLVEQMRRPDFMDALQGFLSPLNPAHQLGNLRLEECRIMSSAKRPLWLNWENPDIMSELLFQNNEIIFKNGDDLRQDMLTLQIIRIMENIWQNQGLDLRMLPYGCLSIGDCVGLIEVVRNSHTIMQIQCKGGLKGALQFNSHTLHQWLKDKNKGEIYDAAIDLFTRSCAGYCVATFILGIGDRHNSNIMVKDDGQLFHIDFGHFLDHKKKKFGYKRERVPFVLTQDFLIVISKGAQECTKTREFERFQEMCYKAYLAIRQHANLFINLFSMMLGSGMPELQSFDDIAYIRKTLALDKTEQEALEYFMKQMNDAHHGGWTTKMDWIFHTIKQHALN
T1 sequence (P27986 whole entry partner): as the sequence (P27986 whole entry partner) above

| IC50 (PI3Kα) [nM] | IC50 (PI3Kβ) [nM] | IC50 (PI3Kγ) [nM] | IC50 (PI3Kδ) [nM] | melting point | IC50 (PI3Kα signaling pathway) [nM] | SMILES |
| --- | --- | --- | --- | --- | --- | --- |
| 130 | 1990 | > 10000 | 1220 | 221 to 223 °C (dec.) | – | N#Cc1c(-c2ccccc2)cc(N2CCOCC2)nc1-c1cccc(O)c1 [Compound 9a] |
| 630 | > 10000 | > 10000 | > 10000 | 240 to 242 °C | 2800 | N#Cc1c(-c2ccc(Oc3ccccc3)cc2)cc(N2CCOCC2)nc1-c1cccc(O)c1 [Compound 9b] |
| 1790 | > 10000 | 2180 | 1370 | 216 to 217 °C | – | COc1ccc(-c2cc(N3CCOCC3)nc(-c3cccc(O)c3)c2C#N)cc1 [Compound 9c] |
| 630 | 2340 | 1640 | 1090 | 208 to 209 °C (dec.) | – | COc1cccc(-c2cc(N3CCOCC3)nc(-c3cccc(O)c3)c2C#N)c1 [Compound 9d] |
| 830 | 6480 | 2910 | 900 | 142 to 144 °C | – | COc1ccc(-c2cc(N3CCOCC3)nc(-c3cccc(O)c3)c2C#N)cc1OC [Compound 9e] |
| > 10000 | > 10000 | 4430 | 1330 | 117 to 120 °C (dec.) | – | Cc1ccc(-c2cc(N3CCOCC3)nc(-c3cccc(O)c3)c2C#N)cc1C [Compound 9f] |
| 1230 | > 10000 | 1560 | 850 | 290 to 292 °C (dec.) | – | N#Cc1c(-c2ccncc2)cc(N2CCOCC2)nc1-c1cccc(O)c1 [Compound 9g] |
| 980 | > 10000 | 2430 | 710 | 239 to 242 °C (dec.) | – | N#Cc1c(-c2cccnc2)cc(N2CCOCC2)nc1-c1cccc(O)c1 [Compound 9h] |
| 1180 | 1550 | 1050 | 420 | 195 to 197 °C | – | Cc1cc(N2CCOCC2)nc(-c2cccc(O)c2)c1C#N [Compound 10, 2-(3-Hydroxyphenyl)-6-morpholino-4-methylnicotinonitrile] |
